Source: article PMC7244523, “A Cell-based Screen in Actinomyces oris to Identify Sortase Inhibitors” (Scientific Reports, 2020)
Values after ≈ are worked out from the molar mass of the structure shown.

Experiments:
AoSrtA = AoSrtA (Actinomyces oris, UniProt A0A0X8K1J2); assay: FRET-based in vitro sortase activity assay, AoSrtA; assay type: biochemical; conditions: for Inhibition of AoSrtA in vitro: FRET assay
Protocol: (§1) The ability of the hit molecules to inhibit sortase activity was measured in vitro using an established FRET-based assay[13] that measures the ability of each enzyme to cleave a fluorogenic peptide substrate; Abz-LAQTG-Dap(Dnp)-NH2 and Abz-LPETG-Dap(Dnp)-NH2, substrates for ^AoSrtA and ^SaSrtA, respectively. Each enzyme cleaves between the threonine and glycine bond in these peptides, leading to a measurable increase in fluorescence (see Methods). The IC50 value of each compound was determined for both the ^AoSrtA and ^SaSrtA enzymes.
(§2) IC50 values for the six hit molecules against the ^AoSrtA and ^SaSrtA enzymes were determined as previously described, with some modifications. Briefly, molecules 1–6 were serial diluted 2-fold (from 1.25 mM to 2.44 µM, 500 µM to 0.98 µM final assay concentration) into 25 µM ^AoSrtA or ^SaSrtA (final assay concentration 10 µM) in buffer A (20 mM HEPES pH 7, 5 mM CaCl2, 0.05% TWEEN, 30% DMSO). The final DMSO concentration was […] in the assay. Samples were incubated 1 hour at room temperature and aliquoted into a 384-well plate (EK-30892). Thirty microliters of FRET peptide (Peptide 2.0) in buffer B (20 mM HEPES pH 7, 5 mM CaCl2, 0.05% TWEEN), […] for ^SaSrtA or Abz-LAQTG-Dap(Dnp)-NH2 for ^AoSrtA was added and the plate was immediately placed into a Flexstation II plate reader (Molecular Devices) and fluorescence was recorded at 335/420 nm excitation/emission wavelengths after 5 seconds of plate shaking to mix the reaction components. Plate fluorescence was measured over the course of 30 minutes.

A. oris MG-1 = assay: Minimum inhibitory concentration, MG-1 strain; assay type: cell-based; conditions: Actinomyces oris, MG1; BHI, 96-well plates, 18 hours
Protocol: (§3) Two validation assays were performed for each hit molecule that measured: (i) the minimum inhibitory concentration (MIC) required to prevent growth of the MG-1 and ΔsrtA/ΔgspA strains, and (ii) their in vitro inhibitory activity against the enzymatic activity of the A. oris and S. aureus sortase enzymes. Initially, the selective growth effect originally observed in the HTS that used 384-well plates was more rigorously defined by determining each molecule’s MIC value for the MG-1 and ΔsrtA/ΔgspA strains. Cells were cultured in 100 µL media containing 2-fold dilutions of each small molecule between 320 µM and 0.039 µM (approximately 134 µg mL^−1 to […]).
(§4) Minimum inhibitory concentration (MIC) values were determined for molecules 1–6 according to the Clinical Laboratory Standard Institutes’ (CLSI) Methods for Dilution Antimicrobial Susceptibility Tests for Bacteria that Grow Aerobically, Approved standards-ninth edition; M07-A9 Vol. 32 No. 2 with the following alterations. Overnight cultures of MG-1 and ΔgspAΔsrtA were diluted to OD600 values of 0.01 before being added to BHI containing the appropriate molecule in 96-well plates. Mueller-Hinton broth was not usable because A. oris is a fastidious bacterium. Plates were sealed with Breatheasy seals and incubated for 18 hours, as A. oris has a doubling time of 2 hours. Plate seals were removed and OD600 values measured. Each plate was run with a positive control (cells, media, and Penicillin G), negative control (media and cells only), and contamination control (media only).

[1] = tested on: A. oris MG-1 (wild-type) versus ΔsrtA/ΔgspA strain; assay: High-throughput cell-based growth screen and counter-screen (differential growth); design: species or system Actinomyces oris; conditions: differential effect on wild-type MG-1 and ΔgspAΔsrtA strains in the HTS; 10 µM, in duplicate; 100 = extreme difference, 0 = none
Protocol: In the primary screen, a total of 200,834 small molecules were tested for their ability to impair A. oris MG-1 growth. Cells were added to an optical density (OD600) of 0.01 in media containing 10 µM of each molecule, followed by a 15 hour incubation at 37 °C and end-point OD600 measurement. The growth effect of each molecule was normalized and expressed as a percent growth relative to the DMSO-only control (see Methods). A total of 1,904 molecules were classified as preliminary hits (0.95% of the molecules tested), as they reduced MG-1 growth after 15 hours by at least 34%, or 2.75 standard deviations below the average. The preliminary hits were then subjected to a counter-screen in which their growth effects on ΔsrtA/ΔgspA were determined. In order to eliminate potentially erroneously identified preliminary hits, the counter-screen and preliminary screen was performed in duplicate for the 1,904 preliminary hit molecules. A molecule was deemed as a hit if it caused greater than 15% differential growth effect in duplicate when the MG-1 and ΔsrtA/ΔgspA strains were compared. […] Data is plotted as the percentage of growth inhibition for each molecule (see Methods).
A total of 200,834 small molecule compounds (Molecular Screening Shared Resource, UCLA) were dissolved in 100% Omnisolv methylsulfoxide (MilliporeSigma MX1456P-6) and stored in 384-well polypropylene plates. Actinomyces oris MG-1 and ΔgspAΔsrtA were streaked out on BHI agar plates containing 50 µg/mL kanamycin and grown at 37 °C for 48 hours to allow single colonies to grow. Cultures were started from 2–3 colonies in BHI with 50 µg/mL kanamycin and allowed to grow until an OD600 between 0.1–0.4. Meanwhile, 384-well plates were filled with 25 µL BHI broth with 100 µg mL^−1 kanamycin (columns 1–22) or 200 µg mL^−1 Penicillin G (positive control, columns 23–24). Five hundred nanoliters of small molecules were transferred into the media (columns 3–22) using the Biomex FX^P automated work station with a 384-well pin tool. Precultures were diluted to an OD600 of 0.02 in 1 L BHI broth without antibiotics. Twenty five microliters of cell culture was immediately aliquoted into plates containing 25 µL media, antibiotics, and small-molecules using a Multidrop (Thermo LabSystems), resulting in 50 µg mL^−1 kanamycin and 10 µM small molecules with 1% DMSO or 100 µg mL^−1 Penicillin G. Plates were immediately lidded and placed into a humidified Cytomat 6001 incubator at 37 °C and allowed to grow for 15.5 hours. Following incubation, plates were removed from the Cytomat using a Thermo Spinnaker robotic arm on a rail, de-lidded, and placed into an EnVision high-speed plate reader for optical density measurement at 620 nm.
Raw data obtained from the screen was formatted in-house to upload to the Collaborative Drug Discovery Vault (www.collaborativedrug.com). Individual optical density readings were converted to a percent growth value ([ODsample-ODPositive control]/[ODNegative Control Average- ODPositive control]) and percent growth inhibition (1-percent growth). The Z-factors for the individual molecules were determined. Molecules with a Z-factor less than or equal to -2.75 were considered preliminary hits to advance forward a generous collection of preliminary hit molecules. Five microliters of each of the 1904 preliminary hit molecules were re-arrayed into new 384-well polypropylene plates. Each of the 1904 preliminary hits were assayed against both the MG-1 and ΔgspAΔsrtA strains in duplicate, on two separate days. Percent difference of growth was calculated according to the equation 100–100[(ODMG-1, Sample-ODMG-1, Positive Control)/ODΔgspAΔsrtA, Sample-ODΔgspAΔsrtA, Positive Control)]/[(ODMG-1, Average-ODMG-1, Positive Control)/ODΔgspAΔsrtA, Average-ODΔgspAΔsrtA, Positive Control)]. […] Molecules were ranked according to their relative growth.

SaSrtA = SaSrtA (Staphylococcus aureus, UniProt Q2FV99); assay: FRET-based in vitro sortase activity assay, SaSrtA; assay type: biochemical
SaSrtA, sequence (Q2FV99 whole entry): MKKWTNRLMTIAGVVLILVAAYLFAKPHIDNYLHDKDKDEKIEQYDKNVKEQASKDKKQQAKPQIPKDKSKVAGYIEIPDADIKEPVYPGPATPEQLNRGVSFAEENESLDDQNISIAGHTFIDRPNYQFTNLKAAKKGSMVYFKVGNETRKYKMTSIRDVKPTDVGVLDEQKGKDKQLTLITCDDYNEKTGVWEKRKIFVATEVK
Protocol: as §1, §2

A. oris ΔgspAΔsrtA = assay: Minimum inhibitory concentration, ΔgspA/ΔsrtA strain; assay type: cell-based, Actinomyces oris; conditions: BHI, 96-well plates, 18 hours
Protocol: as §3, §4

[2] = tested on: A. oris ΔgspA and ΔlcpA strains; assay: Pilus display by transmission electron microscopy; assay type: cell-based, Actinomyces oris; conditions: 10 μM; for Pilus assembly at the cell pole (TEM): ΔgspA or ΔlcpA strain, versus untreated control; for Pili display (TEM): ΔgspA strain, Fig. 5A–D
Protocol: (§5) To examine if these molecules inhibit cell wall anchoring of surface proteins (e.g. GspA), we similarly treated cells devoid of lcpA, i.e. ΔlcpA, another suppressor of srtA[46]. […] To corroborate these observations, we subjected A. oris cells of ΔgspA and Δlcp strains to 10 μM of each molecule (3, 4 and 6) and studied pilus display with transmission electron microscopy (TEM), whereby A. oris cells were immobilized on nickel grids and stained with 1% uranyl acetate prior to viewing by an electron microscope.
To observe cell morphology by negative staining, A. oris cells harvested after inhibitor treatment were washed once with PBS and suspended in 0.1 M NaCl. A drop of 7 µL of bacterial suspension was placed onto carbon-coated nickel grids and stained with 1% uranyl acetate. Samples were examined using a JEOL JEM1200.

A. oris ΔlcpA = assay: Cell fractionation and immunoblot with α-GspA (cell wall anchoring of GspA); assay type: cell-based, Actinomyces oris; conditions: 10 µM, ΔlcpA strain; for GspA polymers (immunoblot α-GspA): 3 hours; for GspA display / cell wall associated GspA: Fig. 4B
Protocol: as §5
(§6) Cell fractionation and Western blotting were followed according to a published protocol. Briefly, the cultures of A. oris strains grown in BHI at 37 °C until OD600 of 0.25 were aliquoted, and bacterial aliquots were treated with 10 µM of individual sortase inhibitors for 3 hours. Bacterial cultures were then normalized to equal OD600, and cells were fractionated into culture medium (S), cell wall (W), and protoplast fractions. Isolated fractions were subjected to protein precipitation by 7.5% trichloroacetic acid, followed by washing with cold acetone, except for the protoplast fractions. Protein samples were dissolved in hot sodium dodecyl sulfate (SDS)-containing sample buffer, separated by 3–12% Tris-glycine gradient gels, and subjected to immunoblotting with specific antisera (α-FimA, 1:10,000 dilution; α-GspA, α-MdbA, α-SrtC2 and α-SrtA, 1:4000 dilution), followed by chemo-luminescence detection.

A. oris ΔgspA = assay: Cell fractionation and immunoblot with α-FimA (type 2 pilus); assay type: cell-based, Actinomyces oris; conditions: 10 µM, 3 hours, ΔgspA strain, versus control
Protocol: To understand the physiological effects that these molecules have on the display of pili and surface proteins on the surface of A. oris, we grew cells with 10 µM of each hit molecule and assessed sortase activity by western blot and electron microscopy as previously reported. To avoid a confounding problem that inhibiting ^AoSrtA causes cell arrest, we performed the experiments in a mutant devoid of gspA; the aforementioned genetic suppressor of sortase lethality.
as §6

[3] = IC50 (A. oris), AoSrtA 10 µM, Abz-LAQTG-Dap(Dnp)-NH2, 1 hour preincubation
[4] = IC50 values, range over compounds, range for both AoSrtA and SaSrtA, in µM

AoSrtA, sequence (A0A0X8K1J2 entry or part of it): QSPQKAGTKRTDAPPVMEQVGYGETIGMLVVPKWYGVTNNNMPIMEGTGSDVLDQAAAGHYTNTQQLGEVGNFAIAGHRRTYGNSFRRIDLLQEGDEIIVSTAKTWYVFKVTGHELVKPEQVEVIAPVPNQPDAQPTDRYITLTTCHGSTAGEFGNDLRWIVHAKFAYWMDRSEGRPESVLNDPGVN

SMILES | Inhibition of AoSrtA in vitro (AoSrtA) | IC50 (AoSrtA; [3]) | MIC (A. oris MG-1) | Differential Growth [1] | IC50 (SaSrtA) | MIC (ΔgspA/ΔsrtA) (A. oris ΔgspAΔsrtA) | Pilus assembly at the cell pole (TEM) [2] | Pili display (TEM) [2] | IC50 (AoSrtA; [4]) | GspA polymers (immunoblot α-GspA) (A. oris ΔlcpA) | GspA display / cell wall associated GspA (A. oris ΔlcpA) | FimA polymers / type 2 pilus production (immunoblot α-FimA) (A. oris ΔgspA)
Cc1ccc(S(=O)(=O)Cc2nc3cc(-c4ccccc4)sc3c(=O)[nH]2)cc1 [Compound 1] | failed to inhibit | > 479 µM | 2 µg/mL (≈ 5.04 µM) | 65.7 ± 0.5% | 202 µM | 4.0 µg/mL (≈ 10.1 µM) |  |  |  |  |  | 
Cc1cc(NS(=O)(=O)c2ccc(C(C)(C)C)cc2)n(C2CCS(=O)(=O)C2)n1 (stereo not drawn) [Compound 2] | failed to inhibit | > 486 µM | 0.5 µg/mL (≈ 1.21 µM) | 96.2 ± 0.3% | > 486 µM | 2.1 µg/mL (≈ 5.1 µM) |  |  |  |  |  | 
CCc1ccc2nc(N(Cc3cccnc3)C(=O)c3ccc([N+](=O)[O-])o3)sc2c1 [Compound 3] |  | 73.5 µM | 8.2 µg/mL (≈ 20.1 µM) | 17.5 ± 3.5% | 220 µM | >130 µg/mL | significant reduction of pilus assembly at the cell pole | completely absent | 73 to 170 µM | no GspA polymers were observed | decreased amounts of cell wall associated GspA | decreased FimA polymers
COc1ccc2nc(N(Cc3ccccc3)C(=O)c3ccc([N+](=O)[O-])o3)sc2c1 [Compound 4] |  | 171 µM | 16.4 µg/mL (≈ 40.1 µM) | 38.5 ± 0.5% | 488 µM | >130 µg/mL | significant reduction of pilus assembly at the cell pole | diminished | 73 to 170 µM | no GspA polymers were observed | decreased amounts of cell wall associated GspA | decreased FimA polymers
O=C(c1cc(-c2ccc(F)cc2)n[nH]1)N1CC(c2nc(-c3ccccc3)no2)C1 [Compound 5] | failed to inhibit | > 488 µM | 1 µg/mL (≈ 2.57 µM) | 96.2 ± 0.3% | 282 µM | 2.0 µg/mL (≈ 5.14 µM) |  |  |  |  |  | 
Cc1nc(COc2ccc(F)cc2)sc1CC(=O)Nc1nc2c(s1)CC(C)CC2 (stereo not drawn) [Compound 6] |  | 139 µM | 2.1 µg/mL (≈ 4.87 µM) | 71.8 ± 16.5% | 125 µM | 8.4 µg/mL (≈ 19.5 µM) | significant reduction of pilus assembly at the cell pole | only modestly effects pili display | 73 to 170 µM | no GspA polymers were observed | significantly diminishes GspA display | little effect on type 2 pilus production
